Source: PubChem BioAssay (NCI)
Values joined by “and” are separate entries in the source; they are usually repeats but may differ in a detail not shown here. Equal entries are not always repeated.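 48-hour exposure; five concentrations; linearly interpolated endpoints. Here, GI50 denotes the concentration required for 50% inhibition of growth. The concentration for full growth arrest is given as TGI.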

Legend:
Assay in all cases: NCI-60 cell line screen, 48 h
[1] = tested on: MCF7 breast
[2] = tested on: TK-10 renal
[3] = tested on: CAKI-1 renal
[4] = tested on: HCT-116 colon
[5] = tested on: KM12 colon
[6] = tested on: ACHN renal
[7] = tested on: SF-268 CNS
[8] = tested on: A549 NSCLC
[9] = tested on: EKVX NSCLC
[10] = tested on: MDA-MB-435

Structure (SMILES)	TGI [1] [µM]	TGI [2] [µM]	TGI [3] [µM]	TGI [4] [µM]	TGI [5] [µM]	TGI [6] [µM]	TGI [7] [µM]	TGI [8] [µM]	GI50 [1]	GI50 [2] [µM]	GI50 [3] [nM]	GI50 [9] [µM]	TGI [9] [µM]	GI50 [5]	GI50 [6] [µM]	GI50 [7] [µM]	GI50 [8] [nM]	GI50 [10]	TGI [10]	GI50 [4]
CC(=O)c1c[nH]cc1CO	> 10	> 10	> 10	> 10	> 10	> 10	> 10	> 10	–	–	–	–	–	–	–	–	–	–	–	–
O=C1/C(=C/c2ccc(Cl)cc2)COc2ccc(O)c(O)c21	2.15	3.19	2.28	–	3.31	2.36	3.06	4.77	332 nM	1.71	1070	1.49	3.19	1360 nM	1.14	1.44	1790	702 nM	2.63 µM	–
Cc1cccc2c1C/C(=C1\CCc3c(C)cccc31)C2=O	–	> 100	> 100	> 100	> 100	> 100	> 100	> 100	–	–	–	–	> 100	–	–	–	–	–	–	–
NC(CCSC(F)F)C(=O)O (stereo not given)	–	> 100	> 100	> 100	> 100	> 100	> 100	> 100	–	–	–	–	> 100	–	–	–	–	–	–	–
O=C1C(=O)c2ccccc2C(O)=C1CCCCCCCCC1CCCCC1	19.4	38.7	57	12.3	23.1	15.6	22.6	23.5	–	–	–	–	–	–	–	–	–	–	17.2 µM	–
N=C(N)c1ccc(-c2ccc(-c3cccs3)s2)nc1	3.3	2.33	6.83	2.79	3.6	3.33	10.7	1.28	1320 nM	1.03	2130	–	–	1880 nM	1.76	2.74	23	1740 nM	3.42 µM	1380 nM
COc1cc(/C=C2/C(=O)NC(Cc3cc(OC)c(OC)c(C)c3OC)C(=O)N2Cc2ccccc2)c(OC)c(C)c1OC (stereo not given)	–	> 100	> 100	> 100	> 100	> 100	> 100	> 100	–	–	–	–	> 100	–	–	–	–	–	–	–
COc1ccc2c(c1)OC(N)=C(C#N)C2c1ccc(F)cc1 (stereo not given)	> 100	> 100	–	26	25.8	> 100	> 100	> 100	522 nM	5.83	–	5.09	> 100	656 nM	6.35	7.38	4940	220 nM	0.601 µM	1090 nM
Cc1cc(=O)oc2cc(OCc3nc4ccccc4c(=O)[nH]3)ccc12	–	> 100	> 100	> 100	> 100	> 100	> 100	> 100	–	–	–	–	> 100	–	–	–	–	–	–	–
COc1cc2cccc(NC(=O)c3cc(OC)c(OC)c(OC)c3Br)c2cc1OC	–	92.6	64.6	36.6	27.5	75.5	59.3	46	–	–	–	–	75.9	–	–	–	–	–	–	–
COC(=O)[C@@H](C)C[C@H](Cc1ccccc1)NC(=O)c1csc([C@@H](C[C@H](C(C)C)N(C)C(=O)C2(NC(=O)[C@H]3CCCCN3C)CC2)OC(C)=O)n1	> 33.3	–	–	> 33.3	> 33.3	> 33.3	> 33.3	> 33.3	0.612 nM and 3.33 nM	–	–	–	> 33.3	6.55 nM and 3.33 nM	–	–	–	0.405 nM and < 3.33 nM	0.00273 µM and < 0.00333 µM	3.43 nM and 3.33 nM
CS/C(c1ccccc1)=[N+](/C)[O-]	–	> 100	> 100	> 100	> 100	> 100	> 100	> 100	–	–	–	–	> 100	–	–	–	–	–	–	–
O=C(CCCCCCC(=O)Nc1ccc2c(c1)/C(=C/c1ccc[nH]1)C(=O)N2)NO	> 69.6	7.78	> 100	2.87	> 23.2	4.67	13.3	15.2	437 nM	0.795	2330	–	–	894 nM	0.904	1.05	2870	332 nM	4.57 µM	230 nM
COc1ccc2nc(C)cc(Nc3ccccc3O)c2c1	51.2	> 100	> 100	82	> 100	> 100	> 100	> 100	20500 nM	50.6	36100	–	–	35900 nM	32.1	29.2	38000	18100 nM	45.4 µM	15000 nM
Cc1ccc(C2=C(c3ccccc3)C(Br)(c3ccccc3)C(c3ccccc3)=C2c2ccc(C)cc2)cc1	–	> 100	> 100	> 100	> 100	> 100	> 100	> 100	–	–	–	–	> 100	–	–	–	–	–	–	–
COC(=O)C(CC(=O)Nc1ccc(Cl)c(Cl)c1)C(=O)C(=O)NC1C2CC3CC(C2)CC1C3 (stereo not given)	–	> 100	> 100	> 100	> 100	> 100	> 100	> 100	–	–	–	–	> 100	–	–	–	–	–	–	–
CC(C)CCc1c(Cl)nc(Cl)nc1Cl	40.7	35.5	–	9.3	–	92.3	> 100	54.9	–	–	–	–	63.2	–	–	–	–	–	32.2 µM	–
C[CH2][Sn]([CH2]C)([O]C(=O)c1cccc(F)c1)[O][Sn]([CH2]C)([CH2]C)[O]C(=O)c1cccc(F)c1	–	33.8	24.1	32.5	> 100	32.7	32.9	> 100	–	19.6	11700	15.3	29.1	> 100000 nM	18.7	17.9	> 100000	–	–	17800 nM
O=C1C[C@@H]2CCCC[C@@H]2C12SCCS2	–	> 100	> 100	> 100	> 100	> 100	> 100	> 100	–	–	–	–	> 100	–	–	–	–	–	–	–
